In ChEMBL document CHEMBL4507257, “Data for DCP probe ABT-100” (2021):

Legend:
[1] = tested on: Tyrosine-protein kinase ABL1 (Homo sapiens), P00519 [E255K]; conditions: Compound concentration 1000.0 nM
[2] = molecular target: Delta-type opioid receptor (Homo sapiens) (UniProt P41143); conditions: Compound concentration 10.0 uM
[3] = molecular target: Ribosomal protein S6 kinase alpha-6 (Homo sapiens) (UniProt Q9UK32); conditions: Compound concentration 1000.0 nM
[4] = molecular target: Serine/threonine-protein kinase 32C (Homo sapiens) (UniProt Q86UX6); conditions: Compound concentration 1000.0 nM
[5] = molecular target: Tyrosine-protein kinase BTK (Homo sapiens) (UniProt Q06187); conditions: Compound concentration 1000.0 nM
[6] = molecular target: G protein-coupled receptor kinase 3 (Homo sapiens) (UniProt P35626); conditions: Compound concentration 1000.0 nM
[7] = molecular target: Insulin receptor (Homo sapiens) (UniProt P06213); conditions: Compound concentration 1000.0 nM
Sequence of Insulin receptor (Homo sapiens) (P06213 28-758 limits assumed): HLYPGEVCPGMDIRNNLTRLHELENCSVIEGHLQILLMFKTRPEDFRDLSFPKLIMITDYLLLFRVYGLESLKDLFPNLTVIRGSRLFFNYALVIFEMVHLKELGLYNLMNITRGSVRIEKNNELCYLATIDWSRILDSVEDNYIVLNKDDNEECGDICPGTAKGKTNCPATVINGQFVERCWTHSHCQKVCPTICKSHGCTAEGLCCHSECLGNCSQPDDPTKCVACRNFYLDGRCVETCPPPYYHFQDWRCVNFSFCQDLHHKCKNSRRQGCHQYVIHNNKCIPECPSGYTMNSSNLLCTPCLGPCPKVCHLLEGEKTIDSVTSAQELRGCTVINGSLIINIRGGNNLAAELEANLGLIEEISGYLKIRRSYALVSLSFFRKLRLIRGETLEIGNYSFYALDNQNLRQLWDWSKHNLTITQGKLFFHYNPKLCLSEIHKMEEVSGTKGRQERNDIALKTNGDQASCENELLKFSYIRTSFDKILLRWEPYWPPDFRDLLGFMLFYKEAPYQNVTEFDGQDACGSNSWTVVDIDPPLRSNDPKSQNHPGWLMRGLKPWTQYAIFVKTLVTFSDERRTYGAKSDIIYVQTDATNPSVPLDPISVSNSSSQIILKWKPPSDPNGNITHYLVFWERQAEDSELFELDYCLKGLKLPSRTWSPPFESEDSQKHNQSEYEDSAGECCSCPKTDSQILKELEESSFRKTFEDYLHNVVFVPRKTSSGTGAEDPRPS
Sequence of Insulin receptor (Homo sapiens) (P06213 763-1382 limits assumed): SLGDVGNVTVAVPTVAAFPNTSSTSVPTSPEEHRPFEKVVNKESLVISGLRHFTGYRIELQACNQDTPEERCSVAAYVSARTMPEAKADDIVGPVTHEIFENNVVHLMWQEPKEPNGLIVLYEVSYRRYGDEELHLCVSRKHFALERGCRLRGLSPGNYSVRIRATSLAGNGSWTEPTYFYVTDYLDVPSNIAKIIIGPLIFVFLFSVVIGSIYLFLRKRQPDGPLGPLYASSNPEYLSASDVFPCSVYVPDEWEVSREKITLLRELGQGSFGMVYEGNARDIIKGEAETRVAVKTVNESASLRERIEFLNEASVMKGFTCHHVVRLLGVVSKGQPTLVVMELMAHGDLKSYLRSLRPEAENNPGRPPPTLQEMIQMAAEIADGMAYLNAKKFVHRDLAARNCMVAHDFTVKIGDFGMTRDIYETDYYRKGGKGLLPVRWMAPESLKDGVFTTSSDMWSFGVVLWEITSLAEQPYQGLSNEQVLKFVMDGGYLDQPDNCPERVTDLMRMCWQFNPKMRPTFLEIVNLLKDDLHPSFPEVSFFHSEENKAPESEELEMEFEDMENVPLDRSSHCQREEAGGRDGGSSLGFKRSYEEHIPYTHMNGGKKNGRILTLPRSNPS

[8] = molecular target: Receptor-interacting serine/threonine-protein kinase 4 (Homo sapiens) (UniProt P57078); conditions: Compound concentration 1000.0 nM
[9] = molecular target: cAMP-dependent protein kinase catalytic subunit PRKX (Homo sapiens) (UniProt P51817); conditions: Compound concentration 1000.0 nM
[10] = molecular target: Death-associated protein kinase 3 (Homo sapiens) (UniProt O43293); conditions: Compound concentration 1000.0 nM
[11] = molecular target: Serine/threonine-protein kinase Nek10 (Homo sapiens) (UniProt Q6ZWH5); conditions: Compound concentration 1000.0 nM
[12] = molecular target: Focal adhesion kinase 1 (Homo sapiens) (UniProt Q05397); conditions: Compound concentration 1000.0 nM
[13] = molecular target: Dual specificity tyrosine-phosphorylation-regulated kinase 1A (Homo sapiens) (UniProt Q13627); conditions: Compound concentration 1000.0 nM
[14] = molecular target: Serine/threonine-protein kinase PAK 3 (Homo sapiens) (UniProt O75914); conditions: Compound concentration 1000.0 nM
[15] = molecular target: Tyrosine-protein kinase Fgr (Homo sapiens) (UniProt P09769); conditions: Compound concentration 1000.0 nM
[16] = molecular target: Cyclin-dependent kinase 4 (Homo sapiens) (UniProt P11802); conditions: Compound concentration 1000.0 nM
Sequence of Cyclin-dependent kinase 4 (Homo sapiens) (P11802 whole entry): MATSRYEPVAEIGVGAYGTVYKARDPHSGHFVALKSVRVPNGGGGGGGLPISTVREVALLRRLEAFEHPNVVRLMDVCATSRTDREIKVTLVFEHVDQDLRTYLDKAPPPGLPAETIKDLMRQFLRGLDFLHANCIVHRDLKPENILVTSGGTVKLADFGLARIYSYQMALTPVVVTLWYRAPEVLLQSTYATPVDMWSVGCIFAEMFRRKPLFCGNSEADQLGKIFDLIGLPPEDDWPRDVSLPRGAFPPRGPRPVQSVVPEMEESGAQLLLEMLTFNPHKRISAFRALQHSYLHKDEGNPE

[17] = molecular target: Atypical kinase COQ8B, mitochondrial (Homo sapiens) (UniProt Q96D53); conditions: Compound concentration 1000.0 nM
[18] = molecular target: Proto-oncogene tyrosine-protein kinase ROS (Homo sapiens) (UniProt P08922); conditions: Compound concentration 1000.0 nM
[19] = molecular target: Inhibitor of nuclear factor kappa-B kinase subunit alpha (Homo sapiens) (UniProt O15111); conditions: Compound concentration 1000.0 nM
Sequence of Inhibitor of nuclear factor kappa-B kinase subunit alpha (Homo sapiens) (O15111 whole entry): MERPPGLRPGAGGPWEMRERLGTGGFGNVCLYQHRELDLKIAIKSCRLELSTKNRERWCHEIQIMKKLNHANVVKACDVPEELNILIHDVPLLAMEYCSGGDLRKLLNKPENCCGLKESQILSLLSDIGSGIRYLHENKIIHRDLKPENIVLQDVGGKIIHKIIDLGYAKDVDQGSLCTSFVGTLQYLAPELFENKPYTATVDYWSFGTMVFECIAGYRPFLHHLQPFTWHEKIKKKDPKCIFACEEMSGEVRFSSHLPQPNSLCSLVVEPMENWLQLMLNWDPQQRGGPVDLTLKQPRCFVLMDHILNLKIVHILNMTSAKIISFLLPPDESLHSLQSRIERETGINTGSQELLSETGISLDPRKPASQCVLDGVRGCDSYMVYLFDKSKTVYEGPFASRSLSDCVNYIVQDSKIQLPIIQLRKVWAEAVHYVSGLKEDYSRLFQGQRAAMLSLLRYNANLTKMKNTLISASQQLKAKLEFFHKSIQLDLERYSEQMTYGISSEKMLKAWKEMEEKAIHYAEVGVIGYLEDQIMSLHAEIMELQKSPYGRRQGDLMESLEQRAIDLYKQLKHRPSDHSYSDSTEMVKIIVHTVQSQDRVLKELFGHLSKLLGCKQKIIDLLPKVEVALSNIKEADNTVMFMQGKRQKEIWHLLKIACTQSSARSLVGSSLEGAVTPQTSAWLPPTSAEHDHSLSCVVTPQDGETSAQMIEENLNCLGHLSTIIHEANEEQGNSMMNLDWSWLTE

[20] = molecular target: 5-hydroxytryptamine receptor 2B (Homo sapiens) (UniProt P41595); conditions: Compound concentration 10.0 uM
[21] = tested on: Tyrosine-protein kinase ABL1 (Homo sapiens), P00519 [F317L]; conditions: Compound concentration 1000.0 nM
Sequence of Tyrosine-protein kinase ABL1 (Homo sapiens), P00519 [F317L] (P00519 whole entry F317L): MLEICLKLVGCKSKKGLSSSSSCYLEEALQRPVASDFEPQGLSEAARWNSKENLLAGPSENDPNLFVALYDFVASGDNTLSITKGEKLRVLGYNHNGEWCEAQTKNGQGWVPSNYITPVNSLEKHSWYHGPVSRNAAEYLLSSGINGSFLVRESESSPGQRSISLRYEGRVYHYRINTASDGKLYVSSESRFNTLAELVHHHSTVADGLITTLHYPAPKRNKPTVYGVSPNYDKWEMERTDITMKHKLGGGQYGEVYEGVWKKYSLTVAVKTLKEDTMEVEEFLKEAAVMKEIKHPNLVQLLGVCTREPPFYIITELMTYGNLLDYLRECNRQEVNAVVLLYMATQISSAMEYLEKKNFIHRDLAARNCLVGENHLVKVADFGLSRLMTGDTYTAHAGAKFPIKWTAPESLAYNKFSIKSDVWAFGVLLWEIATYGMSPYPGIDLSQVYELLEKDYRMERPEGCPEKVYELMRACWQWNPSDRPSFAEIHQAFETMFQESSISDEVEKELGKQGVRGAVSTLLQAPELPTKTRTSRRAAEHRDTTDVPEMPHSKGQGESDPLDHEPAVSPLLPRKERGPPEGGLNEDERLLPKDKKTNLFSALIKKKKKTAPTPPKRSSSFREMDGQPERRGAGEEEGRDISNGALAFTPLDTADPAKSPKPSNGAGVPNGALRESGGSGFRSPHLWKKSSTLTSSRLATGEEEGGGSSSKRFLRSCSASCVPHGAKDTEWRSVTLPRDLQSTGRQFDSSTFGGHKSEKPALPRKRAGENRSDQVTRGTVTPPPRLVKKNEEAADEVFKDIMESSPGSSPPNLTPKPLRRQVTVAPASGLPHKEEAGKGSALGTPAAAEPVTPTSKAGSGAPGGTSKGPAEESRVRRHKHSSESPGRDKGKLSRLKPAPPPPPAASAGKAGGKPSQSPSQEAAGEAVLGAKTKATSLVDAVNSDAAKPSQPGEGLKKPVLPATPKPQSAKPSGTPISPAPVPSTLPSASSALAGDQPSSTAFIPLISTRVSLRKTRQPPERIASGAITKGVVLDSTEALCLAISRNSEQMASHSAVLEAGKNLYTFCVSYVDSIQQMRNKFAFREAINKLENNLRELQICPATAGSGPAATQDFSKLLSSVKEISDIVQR

[22] = molecular target: Ribosomal protein S6 kinase beta-1 (Homo sapiens) (UniProt P23443); conditions: Compound concentration 1000.0 nM
[23] = molecular target: Vascular endothelial growth factor receptor 3 (Homo sapiens) (UniProt P35916); conditions: Compound concentration 1000.0 nM
[24] = molecular target: Ribosomal protein S6 kinase alpha-5 (Homo sapiens) (UniProt O75582); conditions: Compound concentration 1000.0 nM
[25] = molecular target: Platelet-derived growth factor receptor alpha (Homo sapiens) (UniProt P16234); conditions: Compound concentration 1000.0 nM
[26] = tested on: Epidermal growth factor receptor (Homo sapiens), P00533 [UNDEFINED MUTATION]; conditions: Compound concentration 1000.0 nM
[27] = molecular target: Aurora kinase C (Homo sapiens) (UniProt Q9UQB9); conditions: Compound concentration 1000.0 nM
[28] = molecular target: Phosphatidylinositol 4,5-bisphosphate 3-kinase catalytic subunit beta isoform (Homo sapiens) (UniProt P42338); conditions: Compound concentration 1000.0 nM
[29] = molecular target: Fibroblast growth factor receptor 1 (Homo sapiens) (UniProt P11362); conditions: Compound concentration 1000.0 nM
[30] = molecular target: Myotonin-protein kinase (Homo sapiens) (UniProt Q09013); conditions: Compound concentration 1000.0 nM
[31] = tested on: Hepatocyte growth factor receptor (Homo sapiens), P08581 [Y1235D]; conditions: Compound concentration 1000.0 nM
[32] = molecular target: Mitogen-activated protein kinase kinase kinase kinase 3 (Homo sapiens) (UniProt Q8IVH8); conditions: Compound concentration 1000.0 nM
[33] = molecular target: Ephrin type-B receptor 3 (Homo sapiens) (UniProt P54753); conditions: Compound concentration 1000.0 nM
Sequence of Ephrin type-B receptor 3 (Homo sapiens) (P54753 whole entry): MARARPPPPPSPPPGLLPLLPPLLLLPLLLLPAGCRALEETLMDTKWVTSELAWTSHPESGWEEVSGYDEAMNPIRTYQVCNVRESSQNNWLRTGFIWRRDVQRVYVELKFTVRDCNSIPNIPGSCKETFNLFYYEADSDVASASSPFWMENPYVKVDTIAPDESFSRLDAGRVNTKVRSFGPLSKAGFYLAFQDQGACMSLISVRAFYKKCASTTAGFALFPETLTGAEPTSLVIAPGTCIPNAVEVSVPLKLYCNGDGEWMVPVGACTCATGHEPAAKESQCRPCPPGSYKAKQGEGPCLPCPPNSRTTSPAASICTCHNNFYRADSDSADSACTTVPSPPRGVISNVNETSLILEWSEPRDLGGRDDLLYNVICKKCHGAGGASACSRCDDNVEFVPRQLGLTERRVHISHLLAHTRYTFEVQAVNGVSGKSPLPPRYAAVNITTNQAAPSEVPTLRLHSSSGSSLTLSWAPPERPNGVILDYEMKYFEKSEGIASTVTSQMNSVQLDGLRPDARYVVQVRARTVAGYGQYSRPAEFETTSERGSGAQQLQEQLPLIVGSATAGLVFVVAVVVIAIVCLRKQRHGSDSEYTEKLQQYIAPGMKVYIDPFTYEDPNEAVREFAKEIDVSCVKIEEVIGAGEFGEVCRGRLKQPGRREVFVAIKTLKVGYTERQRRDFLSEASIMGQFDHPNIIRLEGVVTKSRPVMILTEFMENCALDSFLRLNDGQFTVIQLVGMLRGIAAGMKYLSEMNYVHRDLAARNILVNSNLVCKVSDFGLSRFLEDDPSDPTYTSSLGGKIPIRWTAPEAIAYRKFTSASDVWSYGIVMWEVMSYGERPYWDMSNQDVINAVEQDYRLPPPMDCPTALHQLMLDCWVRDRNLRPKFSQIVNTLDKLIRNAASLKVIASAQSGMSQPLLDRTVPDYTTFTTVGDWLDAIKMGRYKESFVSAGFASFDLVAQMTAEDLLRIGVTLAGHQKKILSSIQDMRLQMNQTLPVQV

[34] = molecular target: Ribosomal protein S6 kinase alpha-1 (Homo sapiens) (UniProt Q15418); conditions: Compound concentration 1000.0 nM
[35] = molecular target: Ribosomal protein S6 kinase alpha-3 (Homo sapiens) (UniProt P51812); conditions: Compound concentration 1000.0 nM
[36] = molecular target: Tyrosine-protein kinase receptor Tie-1 (Homo sapiens) (UniProt P35590); conditions: Compound concentration 1000.0 nM
[37] = molecular target: Serine/threonine-protein kinase PRP4 homolog (Homo sapiens) (UniProt Q13523); conditions: Compound concentration 1000.0 nM
[38] = molecular target: RAC-beta serine/threonine-protein kinase (Homo sapiens) (UniProt P31751); conditions: Compound concentration 1000.0 nM
[39] = molecular target: Mitogen-activated protein kinase kinase kinase 1 (Homo sapiens) (UniProt Q13233); conditions: Compound concentration 1000.0 nM
[40] = molecular target: Serine/threonine-protein kinase DCLK1 (Homo sapiens) (UniProt O15075); conditions: Compound concentration 1000.0 nM

Sequence of Tyrosine-protein kinase ABL1 (Homo sapiens), P00519 [E255K] (P00519 whole entry E255K): as the sequence (P00519 whole entry F317L) above, with E255K, L317F counted along it
Sequence of Delta-type opioid receptor (Homo sapiens) (P41143 whole entry): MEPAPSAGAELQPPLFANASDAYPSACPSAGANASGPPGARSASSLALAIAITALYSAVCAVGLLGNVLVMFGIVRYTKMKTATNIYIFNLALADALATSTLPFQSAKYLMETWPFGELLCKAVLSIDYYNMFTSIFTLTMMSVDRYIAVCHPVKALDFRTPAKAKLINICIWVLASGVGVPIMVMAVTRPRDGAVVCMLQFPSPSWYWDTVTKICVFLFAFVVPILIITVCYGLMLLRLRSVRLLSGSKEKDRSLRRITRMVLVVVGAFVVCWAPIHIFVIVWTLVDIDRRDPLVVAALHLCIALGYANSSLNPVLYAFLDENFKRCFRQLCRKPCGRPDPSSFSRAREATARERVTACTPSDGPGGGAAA

Cn1cncc1[C@@](O)(COc1ccc(C#N)cc1-c1ccc(OC(F)(F)F)cc1)c1ccc(C#N)cc1 [A-108]
residual activity [1]: 72% | inhibition [2]: 2.4% | residual activity [3]: 94% | residual activity [4]: 80% | residual activity [5]: 82% | residual activity [6]: 100% | residual activity [7]: 84% | residual activity [8]: 94% | residual activity [9]: 94% | residual activity [10]: 100% | residual activity [11]: 84% | residual activity [12]: 97% | residual activity [13]: 99% | residual activity [14]: 91% | residual activity [15]: 100% | residual activity [16]: 100% | residual activity [17]: 100% | residual activity [18]: 96% | residual activity [19]: 100% | inhibition [20]: 18.6% | residual activity [21]: 100% | residual activity [22]: 94% | residual activity [23]: 90% | residual activity [24]: 81% | residual activity [25]: 100% | residual activity [26]: 60% | residual activity [27]: 90% | residual activity [28]: 75% | residual activity [29]: 100% | residual activity [30]: 94% | residual activity [31]: 100% | residual activity [32]: 100% | residual activity [33]: 6% | residual activity [34]: 72% | residual activity [35]: 98% | residual activity [36]: 100% | residual activity [37]: 100% | residual activity [38]: 78% | residual activity [39]: 100% | residual activity [40]: 87%

Cn1cncc1[C@](O)(COc1ccc(C#N)cc1-c1ccc(OC(F)(F)F)cc1)c1ccc(C#N)cc1 [ABT-100]
residual activity [1]: 94% | inhibition [2]: -0.182% | residual activity [3]: 91% | residual activity [4]: 84% | residual activity [5]: 92% | residual activity [6]: 48% | residual activity [7]: 100% | residual activity [8]: 100% | residual activity [9]: 87% | residual activity [10]: 88% | residual activity [11]: 83% | residual activity [12]: 77% | residual activity [13]: 81% | residual activity [14]: 96% | residual activity [15]: 100% | residual activity [16]: 100% | residual activity [17]: 72% | residual activity [18]: 89% | residual activity [19]: 86% | inhibition [20]: -5.75% | residual activity [21]: 100% | residual activity [22]: 96% | residual activity [23]: 77% | residual activity [24]: 76% | residual activity [25]: 100% | residual activity [26]: 80% | residual activity [27]: 100% | residual activity [28]: 96% | residual activity [29]: 62% | residual activity [30]: 98% | residual activity [31]: 78% | residual activity [32]: 100% | residual activity [33]: 100% | residual activity [34]: 89% | residual activity [35]: 100% | residual activity [36]: 85% | residual activity [37]: 100% | residual activity [38]: 81% | residual activity [39]: 90% | residual activity [40]: 94%
